Active and inactive are the calls of the source. The calls are words filed in the database; no cut-off is given here.
Assays:
WI-38 = experiment: Cytotoxicity against human WI-38 cells assessed as reduction in cell viability after 72 hrs by SRB assay; assay type: cell-based; conditions: WI-38, 72 h
HepG2 [1] = experiment: Antiproliferative activity against human HepG2 cells assessed as inhibition of cell growth at 100 microM measured after 72 hrs by SRB assay; assay type: functional
[2] = Inhibition of soya bean 15-LOX; parameters: species or system Glycine max
Carbonic anhydrase 12 = Carbonic anhydrase 12 (Homo sapiens, UniProt O43570); experiment: Inhibition of human CA12 by stopped-flow carbon dioxide hydration assay
Carbonic anhydrase 12, sequence (O43570 whole entry): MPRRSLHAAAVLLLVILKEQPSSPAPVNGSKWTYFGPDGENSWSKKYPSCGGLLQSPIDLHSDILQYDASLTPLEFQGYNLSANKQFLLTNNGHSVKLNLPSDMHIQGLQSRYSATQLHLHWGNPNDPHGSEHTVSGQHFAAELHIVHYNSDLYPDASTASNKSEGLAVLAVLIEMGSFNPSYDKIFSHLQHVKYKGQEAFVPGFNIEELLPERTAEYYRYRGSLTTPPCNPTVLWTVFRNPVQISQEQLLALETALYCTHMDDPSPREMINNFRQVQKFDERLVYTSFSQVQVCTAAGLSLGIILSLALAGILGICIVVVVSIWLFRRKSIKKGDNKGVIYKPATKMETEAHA

MCF7 [3] = experiment: Antiproliferative activity against human MCF-7 cells assessed as cell growth inhibition measured after 72 hrs by SRB assay; assay type: functional, cell-based; conditions: MCF7, 72 h
A549 [4] = experiment: Antiproliferative activity against human A549 cells assessed as cell growth inhibition measured after 72 hrs by SRB assay; assay type: functional, cell-based; conditions: A549, 72 h
[5] = biological target: T1, Prostaglandin G/H synthase 1 (Ovis aries, UniProt P05979); experiment: Inhibition of ovine COX1 by colorimetric analysis
T1 sequence (P05979 whole entry): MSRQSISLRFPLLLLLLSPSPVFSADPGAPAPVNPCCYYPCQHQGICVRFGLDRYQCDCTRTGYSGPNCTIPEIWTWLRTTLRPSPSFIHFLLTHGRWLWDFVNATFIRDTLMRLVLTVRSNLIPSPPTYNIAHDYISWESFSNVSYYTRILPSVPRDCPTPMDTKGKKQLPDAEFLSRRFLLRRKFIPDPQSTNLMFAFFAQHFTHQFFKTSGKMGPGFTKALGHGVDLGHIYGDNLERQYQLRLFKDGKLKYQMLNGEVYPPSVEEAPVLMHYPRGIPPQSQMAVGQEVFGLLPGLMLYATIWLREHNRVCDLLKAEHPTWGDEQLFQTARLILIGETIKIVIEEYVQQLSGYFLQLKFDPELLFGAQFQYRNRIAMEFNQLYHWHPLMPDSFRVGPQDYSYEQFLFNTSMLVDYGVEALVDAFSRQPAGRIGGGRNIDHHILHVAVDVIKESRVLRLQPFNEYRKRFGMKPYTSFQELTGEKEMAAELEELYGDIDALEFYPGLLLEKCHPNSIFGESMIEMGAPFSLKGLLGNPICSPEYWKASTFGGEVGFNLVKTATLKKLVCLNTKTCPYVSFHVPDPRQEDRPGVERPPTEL

HepG2 [6] = experiment: Antiproliferative activity against human HepG2 cells assessed as cell growth inhibition measured after 72 hrs by SRB assay; assay type: functional, cell-based; conditions: HepG2, 72 h
Carbonic anhydrase 2 = Carbonic anhydrase 2 (Homo sapiens, UniProt P00918); experiment: Inhibition of human CA2 by stopped-flow carbon dioxide hydration assay
MCF7 [7] = experiment: Antiproliferative activity against human MCF-7 cells assessed as inhibition of cell growth at 100 microM measured after 72 hrs by SRB assay; assay type: functional
Carbonic anhydrase 1 = Carbonic anhydrase 1 (Homo sapiens, UniProt P00915); experiment: Inhibition of human CA1 by stopped-flow carbon dioxide hydration assay
Carbonic anhydrase 1, sequence (P00915 whole entry): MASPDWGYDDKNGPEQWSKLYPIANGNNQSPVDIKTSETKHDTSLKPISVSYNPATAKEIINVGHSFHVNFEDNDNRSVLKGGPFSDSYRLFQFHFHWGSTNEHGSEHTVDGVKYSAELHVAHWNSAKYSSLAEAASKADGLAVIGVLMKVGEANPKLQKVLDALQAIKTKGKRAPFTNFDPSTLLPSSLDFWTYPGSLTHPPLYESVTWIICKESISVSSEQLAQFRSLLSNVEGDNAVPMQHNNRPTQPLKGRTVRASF

Carbonic anhydrase 9 = Carbonic anhydrase 9 (Homo sapiens, UniProt Q16790); experiment: Inhibition of human CA9 by stopped-flow carbon dioxide hydration assay
A549 [8] = experiment: Antiproliferative activity against human A549 cells assessed as inhibition of cell growth at 100 microM measured after 72 hrs by SRB assay; assay type: functional
HT-29 = experiment: Cytotoxicity against human HT-29 cells assessed as reduction in cell viability incubated for 24 hrs by MTS assay; assay type: functional, cell-based; conditions: HT-29, 24 h
THP-1 = experiment: Cytotoxicity against PMA/LPS-challenged human THP1 cells assessed as reduction in cell viability incubated for 24 hrs by MTS assay; assay type: functional, cell-based; conditions: THP-1, 24 h
A549 [9] = experiment: Induction of apoptosis in human A549 cells assessed as fold change in Bax expression at IC50 by ELISA relative to control; assay type: functional
A549 [10] = experiment: Induction of cell cycle arrest in human A549 cells assessed as accumulation at G2/M phase at IC50 measured after 24 hrs by propidium iodide/RNase staining based flow cytometry (reference value: 9.86%); assay type: functional
A549 [11] = experiment: Induction of cell cycle arrest in human A549 cells assessed as accumulation at S phase at IC50 measured after 24 hrs by propidium iodide/RNase staining based flow cytometry (reference value: 31.88%); assay type: functional
A549 [12] = experiment: Induction of apoptosis in human A549 cells assessed as Bax expression at IC50 by ELISA (reference value: 42.16 +/-6.2 pg/ml); assay type: functional
A549 [13] = experiment: Induction of apoptosis in human A549 cells assessed as necrotic cells at IC50 measured after 24 hrs by annexin V-FITC staining based flow cytometry (reference value: 1.01%); assay type: functional
A549 [14] = experiment: Induction of apoptosis in human A549 cells assessed as fold change in Bcl2 expression at IC50 by ELISA relative to control; assay type: functional
A549 [15] = experiment: Induction of apoptosis in human A549 cells assessed as late apoptotic cells at IC50 measured after 24 hrs by annexin V-FITC staining based flow cytometry (reference value: […]); assay type: functional
A549 [16] = experiment: Induction of apoptosis in human A549 cells assessed as fold change in caspase-9 expression at IC50 by ELISA relative to control; assay type: functional
A549 [17] = experiment: Induction of cell cycle arrest in human A549 cells assessed as accumulation at pre-G1 phase at IC50 measured after 24 hrs by propidium iodide/RNase staining based flow cytometry (reference value: 1.93%); assay type: functional
A549 [18] = experiment: Induction of apoptosis in human A549 cells assessed as early apoptotic cells at IC50 measured after 24 hrs by annexin V-FITC staining based flow cytometry (reference value: 0.63%); assay type: functional
A549 [19] = experiment: Induction of apoptosis in human A549 cells assessed as total apoptotic cells at IC50 measured after 24 hrs by Annexin V-FITC/propidium iodide staining based flow cytometry (reference value: 0.92%); assay type: functional
A549 [20] = experiment: Induction of apoptosis in human A549 cells assessed as Bcl2 expression at IC50 by ELISA (reference value: 9.04 +/-0.1 ng/ml); assay type: functional
A549 [21] = experiment: Induction of cell cycle arrest in human A549 cells assessed as accumulation at G0/G1 phase at IC50 measured after 24 hrs by propidium iodide/RNase staining based flow cytometry (reference value: 58.26%); assay type: functional
A549 [22] = experiment: Induction of apoptosis in human A549 cells assessed as caspase-9 expression at IC50 by ELISA (reference value: […] +/- […] ng/ml); assay type: functional

SMILES	IC50 (WI-38) [µM]	inhibition at 100 µM (HepG2 [1]) [%]	IC50 [2] [µM]	Ki (Carbonic anhydrase 12) [µM]	IC50 [5] [µM]	Ki (Carbonic anhydrase 2) [µM]	inhibition at 100 µM (MCF7 [7]) [%]	Ki (Carbonic anhydrase 1) [µM]	Ki (Carbonic anhydrase 9) [µM]	inhibition at 100 µM (A549 [8]) [%]	other results
Cc1c(-c2nn(-c3ccccc3)cc2/C=N/O)nnn1-c1ccc(Cl)cc1	402	79	1.47	> 100	12.9	> 100	97.8	> 100	> 100	69.7	IC50 (MCF7 [3]): 22 µM; IC50 (A549 [4]): 55.7 µM; IC50 (HepG2 [6]): 26.5 µM
C/C(=N\NC(N)=O)c1nnn(-c2ccc(C(=O)O)cc2)c1C			4.51		6.9						
C/C(=N\NC(N)=S)c1nnn(-c2ccc(Cl)cc2)c1C			5.33		7.9						
O=c1c(O)c(-c2ccc(O)c(O)c2)oc2cc(O)cc(O)c12 [QUERCETIN]			3.34								
CC(=O)c1nnn(-c2ccc(S(N)(=O)=O)cc2)c1C	391	3.61	3.65	0.0826	7.6	0.0079	17.7	0.073	9.12		inhibition (A549 [8]): inactive
C/C(=N\NC(N)=O)c1nnn(-c2ccc(F)cc2)c1C			4.72		8.4						
C/C(=N\NC(N)=S)c1nnn(-c2ccc(S(N)(=O)=O)cc2)c1C	378		1.51	0.0153	13		36.1	0.0835	7.27	3.88	inhibition (HepG2 [1]): inactive
C/C(=N\NC(N)=O)c1nnn(-c2ccc(Cl)cc2)c1C			6.84		5.6						
C/C(=N\NC(N)=S)c1nnn(-c2ccc(F)cc2)c1C	406	19.8	2.42	> 100	9.6	> 100	6.52	> 100	> 100		inhibition (A549 [8]): inactive
CC(=O)c1nnn(-c2ccc(C(=O)O)cc2)c1C			5.14		6.4						
C/C(=N\Nc1nc(-c2ccc(Cl)cc2)cs1)c1nnn(-c2ccc(F)cc2)c1C	414	20.7	1.83		11.9		33.5			11.9	
CC(=O)c1nnn(-c2ccc(F)cc2)c1C			4.75		7.3						
C/C(=N\NC(N)=S)c1nnn(-c2ccc(C(=O)O)cc2)c1C	480		1.65	> 100	11.6		46.6	> 100	> 100		inhibition (HepG2 [1]): inactive; inhibition (A549 [8]): inactive
CC(=O)c1nnn(-c2ccc(Cl)cc2)c1C			3.65		7.9						
C/C(=N\Nc1nc(-c2ccc(Cl)cc2)cs1)c1nnn(-c2ccc(S(=O)(=O)Nc3nccs3)cc2)c1C	468	56	1.19	> 100	14.2	> 100	39.9	> 100	> 100	51.1	IC50 (A549 [4]): 99.3 µM; IC50 (HepG2 [6]): 89.5 µM
Cc1c(-c2nn(-c3ccccc3)cc2/C=N/O)nnn1-c1ccc(F)cc1	393	89	1.98	> 100	10.9	> 100	98.2	> 100	> 100	92.4	IC50 (MCF7 [3]): 5.32 µM; IC50 (A549 [4]): 27 µM; IC50 (HepG2 [6]): 31.1 µM
C/C(=N\NC(N)=O)c1nnn(-c2ccc(S(=O)(=O)Nc3nccs3)cc2)c1C			6.52	> 100	7.9	6.86		46.3	> 100		
Cc1c(-c2nn(-c3ccccc3)cc2/C=N/O)nnn1-c1ccc(S(N)(=O)=O)cc1	450	12.5	1.91	> 100	13.9	7.71	43.5	18.3	> 100		inhibition (A549 [8]): inactive
C/C(=N\NC(N)=O)c1nnn(-c2ccc(S(N)(=O)=O)cc2)c1C	365		4.74	0.0198	5.9	0.0164	5.8	0.213	4.22	18.2	inhibition (HepG2 [1]): inactive
Cc1ccc(-c2cc(C(F)(F)F)nn2-c2ccc(S(N)(=O)=O)cc2)cc1 [CELECOXIB]	433	77.9					89.9			86.2	IC50 (MCF7 [3]): 2.56 µM; IC50 (A549 [4]): 17.5 µM; IC50 (HepG2 [6]): 0.36 µM
CC(=O)c1nnn(-c2ccc(S(=O)(=O)Nc3nccs3)cc2)c1C			4.72	> 100	5.8			51	> 100		
O=C(O)Cc1ccccc1Nc1c(Cl)cccc1Cl [DICLOFENAC SODIUM]											IC50 (HT-29): 137 µM; IC50 (THP-1): 201 µM
C/C(=N\NC(N)=S)c1nnn(-c2ccc(S(=O)(=O)Nc3nccs3)cc2)c1C	458	22.1	1.69	> 100	10.3		20.7	> 100	> 100	11.3	
C/C(=N\Nc1nc(-c2ccc(Cl)cc2)cs1)c1nnn(-c2ccc(C(=O)O)cc2)c1C	461	1.41	1.76	> 100	10.9		40.4	0.551	> 100	67	IC50 (A549 [4]): 73.1 µM
C/C(=N\Nc1nc(-c2ccc(Cl)cc2)cs1)c1nnn(-c2ccc(S(N)(=O)=O)cc2)c1C	388	59	1.34	0.0134	12.4	0.0141	37.2	0.252	7.89	68.1	fold change (FC) (A549 [9]): 7.82; Activity (A549 [10]): 44.85%; Activity (A549 [11]): 23.54%; Activity (A549 [12]): 329.7 pg/mL; IC50 (HT-29): 87.4 µM; Activity (A549 [13]): 2.48%; fold change (FC) (A549 [14]): 0.51; Activity (A549 [15]): 19.59%; fold change (FC) (A549 [16]): 10.56; Activity (A549 [17]): 31.22%; IC50 (A549 [4]): 28.5 µM; Activity (A549 [18]): 9.15%; IC50 (HepG2 [6]): 72.4 µM; Activity (A549 [19]): 28.74%; Activity (A549 [20]): 4.95 ng/mL; Activity (A549 [21]): 31.61%; Activity (A549 [22]): 12.69 ng/mL
